# In US20240279604A1, “3D spheroid having uniform size and composition comprising neuron and astrocyte derived from Alzheimer's disease patients, method for producing thereof, and method and kit for screening drug using thereof” (Industry-University Cooperation Foundation Hanyang …, priority 2023, published 2024):
# Entries after “also recorded” stand apart in the source; their conditions may differ.
# Experiments:
# [1] = system: Alzheimer's disease-derived spheroids (PS1-mutated AD-iPSC-NPCs); experiment: CellEvent Caspase-3/7 Green activated caspase staining in Alzheimer's disease-derived spheroids; type: cell-based, human; conditions: for CellEvent fluorescence signal (activated caspase cell death staining): 10 μM, 3 days, confocal microscopy, FIG. 6D; for green fluorescence of activated caspase, confocal z-stack from surface to inside of spheroids (cell penetration/uptake): confocal z-stack images, FIG. 7
# Procedure: (§1) For drug efficacy testing of 3D cultured cells, PS1-mutated AD-iPSC-NPCs were differentiated into spheroids in a U-bottom plate (Thermo Fisher Scientific). Spheroids were cultured with nordihydroguaiaretic acid (NDGA)(10 μM, Tokyo Chemical Industry, Tokyo, Japan) or curcumin (CU)(10 μM, Tokyo Chemical Industry) in a humidified incubator under 37° C. and 5% CO^2 conditions for 3 days and then fixed for immunocytochemistry and western blotting.
# (§2) After being washed with a probe-free medium, samples were captured and analyzed using a fluorescence microscope (FV3000, Olympus). Cell penetration/uptake by CellEvent staining was analyzed with confocal z-stack data for the green fluorescence of activated caspase released from the inside of spheroids. The confocal z-stack data was obtained from 100 slides of each 1 μm of one spheroid.
# [2] = system: Alzheimer's disease-derived spheroids (PS1-mutated AD-iPSC-NPCs); experiment: Aβ (1-42) ELISA in Alzheimer's disease-derived spheroids cultured with drug; type: cell-based, human; conditions: 10 μM, 3 days; FIG. 6B
# Procedure: as §1
# [3] = system: Alzheimer's disease-derived spheroids (PS1-mutated AD-iPSC-NPCs); experiment: ThT staining of Aβ aggregates in Alzheimer's disease-derived spheroids; type: cell-based, human; conditions: 10 μM, 3 days; confocal microscopy; FIG. 6C
# Procedure: as §1
# (§3) After washing with a probe-free medium, samples were captured and analyzed using a fluorescence microscope (FV3000, Olympus).
# [4] = biological target: T1, Aβ (1-42) (Homo sapiens, UniProt P05067); experiment: in vitro ThT fluorescence assay for Aβ (1-42) aggregation; type: biochemical; conditions: 10 μM compound, 2 μM Aβ (1-42), 20 μM ThT, pH 8.0, 37° C.; FIG. 6A
# T1 construct: an Aβ (1-42) peptide (AGP-8338, Anygen, Gwangju, Republic of Korea); purchased Anygen AGP-8338
# Procedure: The degree of inhibition of Aβ (1-42) aggregation was measured using an in vitro ThT fluorescence assay. An Aβ (1-42) stock (0.2 mM) was prepared in 50% DMSO, and NDGA and CU stocks were prepared in 100% DMSO. Reactions for Aβ (1-42) aggregation (2 μM) and its inhibition by NDGA or CU (10 μM) were performed in a 20 mM sodium phosphate buffer (pH 8.0) supplemented with 0.2 mM EDTA and 0.02% sodium azide in the presence of 20 μM ThT in microplate wells (Corning® 96-well Black Flat Bottom Polystyrene Not Treated Microplate, Corning). ThT fluorescence intensity was measured every 30 minutes under 0.5 min shaking under 335 rpm/29.5 min incubation conditions at 37° C. using an Infinite […] (TECAN Mannedorf, Switzerland) microplate reader with 450-nm excitation and 480-nm emission filters.
# [5] = system: 3D spheroids manufactured from iPSC-NPCs derived from healthy individuals; experiment: CellEvent activated caspase staining of control 3D spheroids treated with oligomerized Aβ; type: cell-based, human; conditions: Aβ aggregates 10 μM, 24 hours, compared to untreated; FIG. 4C
# Procedure: (§4) J Neurosci Methods. 2010; 190(2): 171-179. […] When used, Aβ was suspended in PBS and used.
# as §2
# [6] = system: 3D spheroids manufactured from iPSC-NPCs derived from healthy individuals; experiment: ThT staining of control 3D spheroids treated with oligomerized Aβ; type: cell-based, human; conditions: Aβ aggregates 10 μM, 24 hours, compared to spheroids not treated with Aβ; FIG. 4A
# Excerpt: as §4, §3
# T1 sequence (P05067 672-713 limits assumed): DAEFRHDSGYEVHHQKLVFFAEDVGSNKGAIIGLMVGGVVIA
Compound,CellEvent fluorescence signal (activated caspase cell death staining) [1],"green fluorescence of activated caspase, confocal z-stack from surface to inside of spheroids (cell penetration/uptake) [1]",Aβ (1-42) levels by ELISA [2],ThT fluorescence signal / staining intensity (Aβ aggregates) [3],Aβ (1-42) aggregation (ThT fluorescence) [4],green fluorescence emission according to CellEvent staining (cell death) [5],ThT fluorescence emission [6]
"COc1cc(/C=C/C(=O)CC(=O)/C=C/c2ccc(O)c(OC)c2)ccc1O [CU, curcumin]",reduced,reduction in fluorescence from the surface to the inside of spheroids,decreased; also recorded: reduced,reduced,suppressed,,
"CC(Cc1ccc(O)c(O)c1)C(C)Cc1ccc(O)c(O)c1 (stereo not drawn) [NDGA, nordihydroguaiaretic acid]",reduced,reduction in fluorescence from the surface to the inside of spheroids,decreased; also recorded: reduced,reduced,suppressed,,
"oligomerized Aβ: Aβ (1-42) peptide aggregated/oligomerized in DMSO, used to treat control spheroids",,,,,,substantially increased,noticeably increased
